Assays:
RPE-1 cells = test: clonogenic survival assay, RPE-1 cells; type: cell-based, human
Protocol: (§1) Clonogenic assays were performed in 10 cm tissue culture dishes (for RPE-1 cells, U2OS cells and derived clones). Cells (1000 per dish) were seeded in complete media (10 mL) and allowed to attach overnight, then treated with cisplatin or cisplatin plus inhibitor for the times stated. Following treatments, cells were allowed to grow and form colonies for 10 days. Colonies formed were stained with Coomassie R250 (Sigma) and counted on a COLCount Colony Counter (Oxford Optronix). All experiments represent the mean (±SEM) of at least three biological repeats of duplicate dishes/flasks for each treatment.

SNM1B = molecular target: T1, SNM1B (Homo sapiens, UniProt Q9H816); test: real-time fluorescence-based nuclease assay, SNM1B; type: biochemical
T1 construct: for the MBL and β-CASP domains of SNM1B (aa 1–335) into baculoviral expression vectors pFB-CT10HF-LIC; made in house; host or cells: Sf9 insect cells (baculovirus)
T1 sequence (Q9H816 1-335): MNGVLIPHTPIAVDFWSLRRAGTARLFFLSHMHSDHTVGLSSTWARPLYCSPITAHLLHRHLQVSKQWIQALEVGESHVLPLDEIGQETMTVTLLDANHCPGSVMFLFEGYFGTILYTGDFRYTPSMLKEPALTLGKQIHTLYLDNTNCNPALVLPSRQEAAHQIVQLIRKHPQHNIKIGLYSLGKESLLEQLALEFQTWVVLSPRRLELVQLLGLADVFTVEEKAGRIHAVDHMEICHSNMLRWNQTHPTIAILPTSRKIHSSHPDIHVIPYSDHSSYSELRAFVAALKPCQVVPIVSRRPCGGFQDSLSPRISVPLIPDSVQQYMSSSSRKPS
Protocol: There is structural similarity between SNM1A, SNM1B, and SNM1C and major mechanistic features are likely conserved between the three nucleases. We therefore tested (13) and other hydroxamic acid analogues for inhibition of SNM1B and SNM1C. Due to differences in catalytic turnover between the three enzymes, different concentrations of SNM1B (1 nM) and SNM1C (2.5 nM) were used compared to that for SNM1A (0.5 nM) in the assays. Note that the substrate utilised for the high-throughput fluorescence based and subsequent SNM1A and SNM1B assays differed slightly for SNM1C reflecting its (primarily) endonucleolytic, rather than exonucleolytic, activity (ESI Fig. 9 ^†).
Fluorescence-based nuclease digestion SNM1A–C assays were performed as described.[30,45] […] Fluorescence was measured using a PHERAstar FSX fluorescent plate reader in fluorescent top read mode using excitation at 495 nm, emission at 525 nm, and cutoff at […]. Fluorescence spectra were measured every 140 s, for 35 min, at 37 °C. The fluorescence intensity of each well was plotted against compound concentration and fitted using a log (inhibitor) response curve using GraphPad Prism software (GraphPad Software, Inc., La Jolla, CA, USA).

SNM1C = molecular target: T2, SNM1C (Homo sapiens, UniProt Q96SD1); test: gel-based nuclease assay, SNM1C; type: biochemical; conditions: 2.5 nM SNM1C
T2 construct: for the MBL and β-CASP domains of SNM1C (aa 1–362) into the baculovirus expression vector pBF-6HZB; made in house; host or cells: Sf9 insect cells (baculovirus)
T2 sequence (Q96SD1 1-362): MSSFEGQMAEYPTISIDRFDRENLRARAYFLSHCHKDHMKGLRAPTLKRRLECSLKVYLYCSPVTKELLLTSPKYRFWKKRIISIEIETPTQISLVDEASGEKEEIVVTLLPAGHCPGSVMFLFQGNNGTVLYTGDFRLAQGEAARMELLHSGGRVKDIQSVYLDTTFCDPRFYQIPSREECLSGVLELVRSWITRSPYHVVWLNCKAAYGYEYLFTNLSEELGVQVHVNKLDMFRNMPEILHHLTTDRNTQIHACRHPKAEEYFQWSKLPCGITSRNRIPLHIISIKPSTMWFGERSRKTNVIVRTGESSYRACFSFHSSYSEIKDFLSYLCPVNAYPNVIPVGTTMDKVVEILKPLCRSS
Description: To validate the inhibition of SNM1A, SNM1B, and SNM1C observed in the fluorescence-based screening assays, we then performed gel-based assays using 3′ terminally-labelled oligonucleotide substrates that enable both quantitative and qualitative (visual) assessment of the pattern of inhibition, for a subset of compounds. Importantly, whereas the fluorescence-based assay measures a single hydrolytic event at the substrate terminus, the gel-based nuclease assay informs on the pattern of digestion of the entire 51-mer substrate DNA over time.
Standard exonuclease assays were carried out in a 10 μL final volume containing 20 mM HEPES-KOH, pH 7.5, 50 mM KCl, 0.5 mM TCEP, 10 mM MgCl2, 0.05% (v/v) Triton X-100, 5% (v/v) glycerol, and SNM1 proteins as indicated. Inhibitors were dissolved in DMSO and diluted immediately prior to the reaction in the above buffer. Inhibitors were serially diluted two-fold from 100 μM. The DMSO concentration was kept constant at 0.1% (v/v) in the final reaction mixture. Inhibitors were incubated with the indicated SNM1 enzyme for 10 minutes at room temperature; reactions were initiated by addition of 10 nM DNA substrate and incubated at 37 °C for 20 min. Reactions were quenched by addition of 5 μL stop solution (95% formamide, 10 mM EDTA, 0.25% (v/v) xylene cyanol, 0.25% (v/v) bromophenol blue) and heated at 95 °C for 3 min. Reactions were analysed by 20% denaturing polyacrylamide gel electrophoresis solution of 19 : 1 acrylamide:bis-acrylamide, BioRad and 7 M urea (Sigma Aldrich) in 1 × TBE (Tris-borate EDTA) buffer. Electrophoresis was carried out at 525 V for 75 minutes; gels were subsequently fixed for 60 minutes in a 50% (v/v) methanol, 10% (v/v) acetic acid solution, and dried at 80 °C for two hours under vacuum. Dried gels were exposed to a Kodak Phosphor imager screen and scanned using a Typhoon 9500 instrument (GE Healthcare), scanned images were quantified using ImageJ.
Suppl. Figure 10. […] Products were analysed by 20% denaturing PAGE. […]

[1] = system: U2OS (osteosarcoma) cells; test: clonogenic survival assay, U2OS cells; type: cell-based, human
Protocol: as §1

With `C[C@H](Nc1nc(NCc2ccco2)nc2ccc(Cl)cc12)C(=O)NO` [compound 19] the “effect on cisplatin sensitivity” value (RPE-1 cells; RPE-1, 50 μM compound) was “did not substantially increase”, the “reduction in survival as single agent” value (RPE-1 cells; RPE-1, 50 μM compound) was “negligible reduction in survival” and the “toxicity as single agent” value (RPE-1 cells; RPE-1, 100 μM compound) was “mild toxicity”. For the same compound, the IC50 (SNM1B) was 2.5 µM, the “inhibition of SNM1C in gel-based assay” value (SNM1C) was “inhibits each of SNM1A–C” and the “effect on cisplatin cytotoxicity” value ([1]; U2OS wild-type, 50 μM compound 20 hours pre-treatment, 0–15 μM cisplatin) was “potentiation of cisplatin cytotoxicity”. The “cell death as single agent” value ([1]; U2OS, 50 μM compound) was at most 10% and the “cytotoxicity as single agent” value ([1]; U2OS, 100 μM compound) was “some cell death”.

Source: paper PMC11134331, “Cell-active small molecule inhibitors validate the SNM1A DNA repair nuclease as a cancer target” (Chemical Science, 2024)
